According to patent publication US20060153861A1, “BCR-ABL imatinib resistance-associated peptides and methods of use thereof” (priority 2004, published 2006):

How the values were obtained:
[1] = system: T2 cells pulsed with peptide; experiment: Chromium-51 release cytotoxicity assay with peptide-stimulated T cells; type: cell-based, human; conditions: for killing of T2 cells pulsed with kinase mutant sequence peptides: T cells generated by several stimulations with the peptide, not with control peptide or no peptide; for killing of cells expressing the native peptide: T cell lines after several stimulations with the heteroclitic peptide; for killing of T2 cells pulsed with the heteroclitic peptide: T cell lines after several stimulations, no lysis of T2 without peptide or with control peptide
Protocol: T lymphocytes were isolated from the same donors by use of negative selection by depletion with an anti-CD11b, anti-CD56 and CD19 MAb (Miltenyi, CA). A total of 1×10^6 pure T lymphocytes were cultured with 1×10^5 autologous DC in RPMI 1640 medium supplemented with 5% heat-inactivated human autologous plasma with bcr-abl synthetic peptides at a concentration of 10 μg/mL and β2 microglobulin at 2 μg/ml in 24-well plates in the presence of 5-10 ng/mL recombinant human IL-7 (Genzyme) and 0.1 ng/ml IL-12. After culture for 3 days 20 U/ml of IL-2 was added. After 10 days, 1×10^6 cells were stimulated again by adding 2×10^5 autologous, magnetically isolated CD14^+ monocytes together with 10 ng/ml of IL-7 and 20 U/ml IL-2 and peptide at a concentration of […]. In some cases, as indicated, after culture for another 7 days, the cells were stimulated a third time, in the same manner. After the second or third stimulation, CD8 T cells were magnetically isolated and cytotoxicity and gamma-IFN (interferon) secretion of these cells was then examined.
The presence of specific CTLs was measured in a standard 4 h-chromium release assay as follows. 4×10^6 targets were labeled with 300 μCi of Na2 ^51CrO+ (NEN Life Science Products, Inc. Boston, Mass.) for 1 hour at 37° C. After washing, cells at 2×10^6/ml concentration were incubated with or without synthetic peptides at a concentration of 10 μg/ml for 2 h at 20° C. in presence of β2 microglobulin at 3 μg/ml. After washing by centrifugation, target cells were resuspended in complete media at 5×10^4 cells per ml and plated in a 96 well U-bottom plate (Becton Dickinson®, NY) at 5×10^3 cells per well with effector cells at effector to target (E/T) ratios ranging from 100:1 to 10:1. Plates were incubated for 5 hours at 37° C. in 5% CO2. Supernatant fluids were harvested and radioactivity was measured -in a gamma counter. Percent specific lysis was determined from the following formula: 100× [(experimental release−spontaneous release)/(maximum release−spontaneous release)]. Maximum release was determined by lysis of targets in 2.5% Triton X-100.
In order to determine whether the in vitro-generated T cells were capable of cytolysis, T cell lines obtained after several stimulations with p210C and b2a2A3 were assayed by chromium-51 release assays using peptide pulsed target cell lines.

[2] = system: T cells from HLA A0201 donors challenged with peptide-pulsed T2 cells; experiment: Gamma interferon ELISPOT of T cells after in vitro stimulation with peptide; type: cell-based, human; conditions: for heteroclitic response (ELISPOT) / IFN-γ production (ELISPOT): CD3+ T cells from HLA A0201 donors; for heteroclitic response (ELISPOT): FIGS. 8 and 9; for IFN-γ production (ELISPOT): imatinib resistance-associated peptides, two or three stimulations; for recognition of the native sequence by T cells elicited with the peptide / immune response (IFN-gamma secretion, ELISPOT) / immune response as gamma-IFN secretion by CD3+ T cells: healthy HLA A0201 donors; for recognition of the native sequence by T cells elicited with the peptide: T2 pulsed with native peptide; for immune response (IFN-gamma secretion, ELISPOT): second or third round of peptide stimulation, peptide-pulsed T2 targets; for immune response as gamma-IFN secretion by CD3+ T cells: b2a2-derived peptides, FIG. 4
HLA A0201 molecules = molecular target: T1, HLA A0201 molecules (Homo sapiens, UniProt P04439, D140Y/D185E/D98H/E176V/E277Q/G131W/G231S/I119V/I121R/I166T/I218V/L300P/L318F/N151K/N90K/P208A/P217A/Q86G/Q94H/R138H/R169H/T345S); experiment: T2 assay for peptide binding to HLA A0201 molecules; conditions: T2 cells, FIG. 1
T1 construct: endogenous in cells; host or cells: T2 (174xCEM.T2) human cell line
Protocol: (§1) T2 cells (TAP-, HLA-A0201^+) were incubated overnight at 27° C. at a concentration of 1×10^6 cells/ml in FCS-free RPMI medium supplemented with 5 μg/ml human β2microglobulin (Sigma, St Louis, Mo.) in the absence (negative control) or presence of either a positive reference tyrosinase peptide or test peptides at various final concentrations (50, 10, 1, and 0.1 μg/ml). Following a 4-hour incubation with 5 μg/ml brefeldin A (Sigma), T2 cells were labeled for 30 minutes at 4° C. with a saturating concentration of anti-HLA-A2.1 (BB7.2) monoclonal antibody (mAb), then washed twice. The cells were then incubated for 30 minutes at 4° C. with a saturating concentration of FITC-conjugated goat IgG F(ab′)2 anti-mouse Ig (Caltag, South San Francisco, Calif.), washed twice, fixed in PBS/1% paraformaldehyde and analyzed using a FACS Calibur® cytofluorometer (Becton Dickinson, Immunocytometry systems, San Jose, Calif.).
The mean intensity of fluorescence (MIF) observed for each peptide concentration (after dividing of the MIF observed without peptide) was used as an estimate of peptide binding and expressed as a fluorescence index. Stabilization assays were performed similarly. Following initial evaluation of peptide binding at time 0, cells were washed in RPMI complete medium to remove free peptides and incubated in the continuous presence of 0.5 pg/ml brefeldin-A for 2, 4, 6 or 8 hours. […]

HLA A0201 = HLA A0201 (Homo sapiens, UniProt P04439, D140Y/D185E/D98H/E176V/E277Q/G131W/G231S/I119V/I121R/I166T/I218V/L300P/L318F/N151K/N90K/P208A/P217A/Q86G/Q94H/R138H/R169H/T345S); experiment: BIMAS predicted score for binding to HLA A0201; conditions: analogue versus native CMLA2
Protocol: Peptides with potential CTL epitopes can be predicted by means of a peptide library-based scoring system for MHC class I-binding peptides. AA sequences of the human b3a2 and b2a2 fusion proteins were scanned for peptides with potential binding capacity for HLA A0201, a subtype encompassing 95% of the HLA-A02 allele. HLA-A0201 is expressed in about 40% of the Caucasian population.
Substitutions were determined using the software of the Bioinformatics & Molecular Analysis Section (National Institutes of Health, Washington, D.C.) (Parker K C, et al. J Immunol 1994;152(1):163-75; available at http://bimas.dcrt.nih.gov/cgi-bin/molbio/ken_parker_comboform), which ranks 9-mer or 10-mer peptides on a predicted half life dissociation coefficient from HLA class I molecules. Several analogue peptides were designed whereby one or both anchor amino acids or additional amino acids adjacent to anchor amino acids were modified. […] All the native peptides were predicted to have a half life of less than one minute. Most substitutions affected the primary or secondary anchor motifs (leucine in position 2 or valine in position 9 or 6) but in some cases, a tyrosine was substituted in position 1. […] Also depicted in Table 1 are the predicted half lives according to another software program, […] (Rammensee H G, et al., Immunogenetics 1995; 41(4): 178-228; available at http://syfpeithi.bmi-heidelberg.com).

[3] = molecular target: T2, HLA-A0201 molecule on T2 cells (TAP-, HLA-A0201+) (human); experiment: T2 binding and stabilization assay, flow cytometry with BB7.2
T2 construct: Empty, thermolabile HLA-A0201 on live T2 cells; also called HLA-A2.1
Protocol: as §1, with “HLA-A0201⁺)” for “HLA-A0201^+)”, “1×10⁶” for “1×10^6”, “β₂microglobulin” for “β2microglobulin”
The mean intensity of fluorescence (MIF) observed for each peptide concentration (after dividing of the MIF observed without peptide) was used as an estimate of peptide binding and expressed as a fluorescence index. Stabilization assays were performed similarly. Following initial evaluation of peptide binding at time 0, cells were washed in RPMI complete medium to remove free peptides and incubated in the continuous presence of 0.5 pg/ml brefeldin-A for 2, 4, 6 or 8 hours.
For peptides to be immunogenic, in an MHC class I-restricted context, they require the capacity to bind and stabilize MHC class I molecules on the live cell surface. Since the computer prediction models above have 60-80% predictive accuracy, direct measurement of the strength of the interaction between the peptides and the HLA-A0201 molecule was performed, with a conventional binding and stabilization assay that uses the antigen-transporting deficient (TAP2 negative) HLA-A0201 human T2 cells.

[4] = molecular target: T2, HLA-A0201 molecule on T2 cells (TAP-, …); experiment: T2 assay, referred to in the ELISPOT example

Molecule: IIIEFMTYV (listed as Homo sapiens) [T3A2]
- killing of T2 cells pulsed with kinase mutant sequence peptides [1]: able to kill T2 cells pulsed with specific kinase mutant sequence peptides

Molecule: KLGGGQFGV (listed as Homo sapiens) [V2A3]
- heteroclitic response (ELISPOT) [2]: stimulated heteroclitic responses

Molecule: KLGGGQYGV (listed as Homo sapiens) [V2A1]
- IFN-γ production (ELISPOT) [2]: greater IFN-γ was produced following a third stimulation

Molecule: KLLQRPVAV (listed as Homo sapiens) [p210C]
- killing of cells expressing the native peptide [1]: able to recognize and kill cells expressing the native peptide
- killing of T2 cells pulsed with the heteroclitic peptide [1]: able to kill T2 cells pulsed with the heteroclitic peptides
- immune responses in CML patients ([2]; 4 patients with chronic phase CML assayed): observed in two of the CML patients
- frequency of CD8+ cells recognizing T2 pulsed with the synthetic peptide ([2]; CML patient, two rounds of stimulation): ~400 spot-forming cells (SCF) per 1×10^5 cells
- recognition of the native sequence by T cells elicited with the peptide [2]: able to recognize their respective native sequences
- immune response (IFN-gamma secretion, ELISPOT) [2]: most consistent and significant immune-responses

Molecule: KLSSKALQV (listed as Homo sapiens) [p210B]
- immune response (IFN-gamma secretion, ELISPOT) [2]: no immune response

Molecule: KQSSKALQV (listed as Homo sapiens) [p210A]
- immune response (IFN-gamma secretion, ELISPOT) [2]: no immune response

Molecule: KVYEGVWKV (listed as Homo sapiens) [K2A3]
- killing of T2 cells pulsed with kinase mutant sequence peptides [1]: able to kill T2 cells pulsed with specific kinase mutant sequence peptides
- heteroclitic response (ELISPOT) [2]: stimulated heteroclitic responses

Molecule: SSKALQRPV (listed as Homo sapiens) [CMLA2, native b3a2 breakpoint peptide, previously described]
- binding to HLA A0201 in the T2 assay (HLA A0201 molecules): weak MHC binder

Molecule: TLFKQSSKV (listed as Homo sapiens) [p210D]
- immune response (IFN-gamma secretion, ELISPOT) [2]: produced an immune response in some donors tested

Molecule: YIIIEFMTYV (listed as Homo sapiens) [T3B2]
- heteroclitic response (ELISPOT) [2]: stimulated heteroclitic responses

Molecule: YLFKQSSKV (listed as Homo sapiens) [p210E]
- immune response (IFN-gamma secretion, ELISPOT) [2]: produced an immune response in some donors tested

Molecule: YLGGGQFGV (listed as Homo sapiens) [V2A2]
- IFN-γ production (ELISPOT) [2]: greater IFN-γ production following a second stimulation
- recognition of the native sequence by T cells elicited with the peptide [2]: recognized native sequences

Molecule: YLINKEEAL (listed as Homo sapiens) [b2a2 A3]
- killing of cells expressing the native peptide [1]: able to recognize and kill cells expressing the native peptide
- killing of T2 cells pulsed with the heteroclitic peptide [1]: able to kill T2 cells pulsed with the heteroclitic peptides
- recognition of the native sequence by T cells elicited with the peptide [2]: recognized the native sequence as well
- immune response as gamma-IFN secretion by CD3+ T cells [2]: significant immune respose

Molecule: YLINKEEAV (listed as Homo sapiens) [b2a2 A4]
- immune response as gamma-IFN secretion by CD3+ T cells [2]: significant immune respose

Molecule: YLINKVEAL (listed as Homo sapiens) [b2a2 A5]
- immune response as gamma-IFN secretion by CD3+ T cells [2]: significant immune respose

Molecule: YLKALQRPV (listed as Homo sapiens) [p210F]
- increase of BIMAS prediction (HLA A0201): 700 fold
- recognition of the native sequence by T cells elicited with the peptide [2]: able to recognize their respective native sequences
- immune response (IFN-gamma secretion, ELISPOT) [2]: most consistent and significant immune-responses
- binding to HLA A0201 in the T2 assay (HLA A0201 molecules): high avidity

Molecule: YLINKEEAL [b2a2 A3 (analogue)]
- binding result [3]: binds

Molecule: YLINKEEAV [b2a2 A4 (analogue)]
- binding result [3]: binds

Molecule: YLINKVEAL [b2a2 A5 (analogue)]
- binding result [3]: binds

Molecule: KALQRPVAS [p210Cn native]
- binding result [3]: binds

Molecule: SSKALQRPV [CMLA2 native]
- binding result [4]: binds
